Reference: article PMC6427567, “Discovery of novel coumarin derivatives as potent and orally bioavailable BRD4 inhibitors based on scaffold hopping” (Journal of Enzyme Inhibition and Medicinal Chemistry, 2019)

Columns and labels:
[1] = target: T1, BRD4-full length: recombinant human bromodomain containing protein 4 (bromodomain 1 and 2; aa 2–1362) (Homo sapiens, UniProt O60885); test: BRD4 binding assay (AlphaScreen); conditions: for IC50 / BRD4 binding activity in words: AlphaScreen assay; for LE (Ligand Efficiency): LE = 1.4 (pIC50/heavy atoms)
T1 construct: (bromodomain 1 and 2; aa 2–1362; Genbank Accesstion # NM_058243); host or cells: Sf9 insect cells
Description: The binding affinity was evaluated by a using AlphaScreen technology […] assay. The biotinylated peptide binding to the reader domain of His-tagged protein is monitored by the singlet oxygen transfer from the Streptavidin-coated donor beads to the AlphaScreen Ni-chelate acceptor beads. Reagent:Reaction buffer:50 mM Hepes, pH7.5, 100 mM NaCl, 0.05% CHAPS, 0.1% BSA, and 1% DMSO (the final DMSO concentration may different depending on compound stock and test concentrations). […] MW = 156.5 kDa. […] Reaction procedure: (1) Deliver 2.5× BRD in wells of reaction plate except No BRD control wells. Add buffer instead. (2) Deliver compounds in 100% DMSO into the BRD mixture by Acoustic technology (Echo550; nanoliter range). Spin down and pre-incubation for 30 min. (3) Deliver 5 × Ligand. Spin and shake. (4) Incubate for 30 min at room temperature with gentle shaking. (5) Deliver 5× donor beads. Spin and shake. (6) Deliver 5 × acceptor beads. Spin and shake. Then gentle shaking in the dark for 60 min. (7) Alpha measurement (Ex/Em = 680/520–620 nm) in Enspire.

[2] = set-up: method as in PMID 23095041; conditions: cited from earlier work

SMILES	IC50 [1] [µM]	LE (Ligand Efficiency) [1]	further results
O=c1ccc2cc(NS(=O)(=O)c3ccccc3)ccc2o1 [Compound 1, N-(2-oxo-2H-chromen-6-yl)benzenesulphonamide]	6.59	0.35	
O=c1ccc2cc(NS(=O)(=O)C3CCCCC3)ccc2o1 [Compound 2, N-(2-oxo-2H-chromen-6-yl)cyclohexanesulphonamide]	19	0.31	
O=c1ccc2cc(NS(=O)(=O)C3CCCC3)ccc2o1 [Compound 3, N-(2-oxo-2H-chromen-6-yl)cyclopentanesulphonamide]	17.9	0.33	
CCCS(=O)(=O)Nc1ccc2oc(=O)ccc2c1 [Compound 4, N-(2-oxo-2H-chromen-6-yl)propane-1-sulphonamide]	38.5	0.34	
CCCCS(=O)(=O)Nc1ccc2oc(=O)ccc2c1 [Compound 5, N-(2-oxo-2H-chromen-6-yl)butane-1-sulphonamide]	30	0.33	
O=c1ccc2cc(NS(=O)(=O)c3ccc(Cl)cc3)ccc2o1 [Compound 6, 4-chloro-N-(2-oxo-2H-chromen-6-yl)benzenesulphonamide]	2.97	0.34	
COc1ccc(S(=O)(=O)Nc2ccc3oc(=O)ccc3c2)cc1 [Compound 7, 4-methoxy-N-(2-oxo-2H-chromen-6-yl)benzene sulphonamide]	7.31	0.33	
CC(C)(C)c1ccc(S(=O)(=O)Nc2ccc3oc(=O)ccc3c2)cc1 [Compound 8, 4-(tert-butyl)-N-(2-oxo-2H-chromen-6-yl)benzene sulphonamide]	5.09	0.30	
N#Cc1cccc(S(=O)(=O)Nc2ccc3oc(=O)ccc3c2)c1 [Compound 9, 3-cyano-N-(2-oxo-2H-chromen-6-yl)benzene sulphonamide]	5.03	0.32	
O=c1ccc2cc(NS(=O)(=O)c3ccccc3Cl)ccc2o1 [Compound 10, 2-chloro-N-(2-oxo-2H-chromen-6-yl)benzenesulphonamide]	2.21	0.36	
COc1ccccc1S(=O)(=O)Nc1ccc2oc(=O)ccc2c1 [Compound 11, 2-methoxy-N-(2-oxo-2H-chromen-6-yl)benzenesulphonamide]	0.98	0.37	lipophilic efficiency (LipE) ([1]; LipE = −lg (IC50) − logP): 3.9; fold more potent than 1 (BRD4 IC50) ([1]; compared with compound 1): approximately 7 fold
O=c1ccc2cc(NS(=O)(=O)c3ccc(Cl)cc3Cl)ccc2o1 [Compound 12, 2,4-dichloro-N-(2-oxo-2H-chromen-6-yl)benzenesulphonamide]	1.77	0.35	
O=c1ccc2cc(NS(=O)(=O)c3cccs3)ccc2o1 [Compound 14, N-(2-oxo-2H-chromen-6-yl)thiophene-2-sulphonamide]	9.26	0.35	BRD4 binding activity in words [1]: low binding activity
O=c1ccc2cc(NS(=O)(=O)c3ccc4ccccc4c3)ccc2o1 [Compound 15, N-(2-oxo-2H-chromen-6-yl)naphthalene-2-sulphonamide]	12.2	0.28	BRD4 binding activity in words [1]: reduction of affinity
O=c1ccc2cc(NS(=O)(=O)c3ccc4c(c3)CCO4)ccc2o1 [Compound 16, N-(2-oxo-2H-chromen-6-yl)-2,3-dihydrobenzofuran-5-sulphonamide]	18.4	0.28	BRD4 binding activity in words [1]: reduction of affinity
COc1ccc(NS(=O)(=O)c2ccc3oc(=O)ccc3c2)cc1 [Compound 17, N-(4-methoxyphenyl)-2-oxo-2H-chromene-6-sulphonamide]	32.6		fold decrease in potency compared with 7 (BRD4) ([1]; compared with compound 7): ~5 fold
COc1ccccc1S(=O)(=O)Nc1ccc2c(c1)CN(C)C(=O)N2 [PFI-1]			oral bioavailability (F) [2]: 32%
